Assay results published in PubChem BioAssay (NCI).
Where “and” joins values, the source holds several entries; their conditions need not be identical. Equal values may be shown once.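 How tested: cells in 96-well plates exposed to compound for 48 hours at five concentrations. GI50 marks 50% less growth. The concentration for full growth arrest is given as TGI.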

Experiments:
Test in all cases: NCI tumour cell line growth inhibition, 48 h
MDA-MB-231 breast = system: MDA-MB-231 breast
MCF7 breast = system: MCF7 breast
HCC-2998 colon = system: HCC-2998 colon
SNB-19 CNS = system: SNB-19 CNS
DMS 273 small cell lung = system: DMS 273 small cell lung
MOLT-4 leukemia = system: MOLT-4 leukemia
786-0 renal = system: 786-0 renal
OVCAR-8 ovarian = system: OVCAR-8 ovarian
OVCAR-5 ovarian = system: OVCAR-5 ovarian

Structure (SMILES): C#CCNC(=O)NC(CCCCNC(=O)OCc1ccccc1)C(=O)OCc1ccccc1 (centres undefined)
- TGI (MDA-MB-231 breast): > 58.7 µM
- TGI (MCF7 breast): > 100 µM
- TGI (HCC-2998 colon): > 74.1 µM
- TGI (SNB-19 CNS): > 100 µM
- TGI (DMS 273 small cell lung): > 100 µM
- TGI (MOLT-4 leukemia): 85.7 µM
- TGI (786-0 renal): > 100 µM
- TGI (OVCAR-8 ovarian): > 100 µM
- TGI (OVCAR-5 ovarian): > 100 µM

Structure (SMILES): C/C(=N\NC(=S)N1CCN(c2ccccn2)CC1)c1ncccn1
- TGI (MDA-MB-231 breast): 19.4 µM
- TGI (MCF7 breast): 13.4 µM
- GI50 (HCC-2998 colon): 0.177 µM
- TGI (HCC-2998 colon): 5.21 µM and 13.5 µM
- TGI (SNB-19 CNS): 19 µM
- GI50 (DMS 273 small cell lung): 0.0311 µM
- TGI (DMS 273 small cell lung): 3.71 µM and 15.2 µM
- TGI (MOLT-4 leukemia): 7.02 µM and > 38.4 µM
- GI50 (786-0 renal): 0.0742 µM
- TGI (786-0 renal): 15.7 µM
- GI50 (OVCAR-8 ovarian): 0.0154 µM
- TGI (OVCAR-8 ovarian): 5.4 µM and 16.4 µM
- TGI (OVCAR-5 ovarian): 4.77 µM and 21.5 µM

Structure (SMILES): COc1c(CC=C(C)C)c(O)c(C(CC(C)C)c2c(O)c(CC=C(C)C)c(O)c(C(C)=O)c2O)c(O)c1C(C)=O (centres undefined)
- TGI (MDA-MB-231 breast): 7.66 µM
- TGI (MCF7 breast): 4.84 µM
- TGI (HCC-2998 colon): 1.69 µM
- TGI (SNB-19 CNS): 15.2 µM
- TGI (DMS 273 small cell lung): 1.33 µM
- TGI (MOLT-4 leukemia): 2.48 µM
- TGI (786-0 renal): 11.9 µM
- TGI (OVCAR-8 ovarian): 10.3 µM
- TGI (OVCAR-5 ovarian): 19.7 µM

Structure (SMILES): COc1c(OC(C)C)cc2cc(O)c(C(=O)NC3Cc4ccc(c(Cl)n4)O[C@@H]4C=C5C#C/C(=C\C#CC6OC56C4OC4CC(C)(O)C(O)C(C)O4)C(OC4CC(O)C(N(C)C)C(C)O4)COC3=O)cc2c1OC (some centres undefined)
- TGI (MCF7 breast): > 36.3 µM
- GI50 (HCC-2998 colon): 21 µg/mL
- TGI (HCC-2998 colon): > 36.3 µM and 37.5 µg/mL
- GI50 (SNB-19 CNS): 17.7 µM and 0.956 µg/mL
- TGI (SNB-19 CNS): > 36.3 µM and 37.5 µg/mL
- GI50 (DMS 273 small cell lung): 0.279 µg/mL
- TGI (DMS 273 small cell lung): 12.7 µg/mL
- GI50 (MOLT-4 leukemia): 0.00979 µg/mL
- TGI (MOLT-4 leukemia): 14.2 µg/mL
- GI50 (786-0 renal): 7.1 µM and 0.244 µg/mL
- TGI (786-0 renal): > 36.3 µM and 2.79 µg/mL
- GI50 (OVCAR-8 ovarian): 26.7 µM and 1.18 µg/mL
- TGI (OVCAR-8 ovarian): > 36.3 µM and 37.5 µg/mL
- GI50 (OVCAR-5 ovarian): > 36.3 µM and 4.02 µg/mL
- TGI (OVCAR-5 ovarian): > 36.3 µM and 27.5 µg/mL

Structure (SMILES): O=c1[nH]c2ccccc2n1C1CCN(CCCC(c2ccc(F)cc2)c2ccc(F)cc2)CC1
- GI50 (MDA-MB-231 breast): 1.33 µM and 7.38 µM
- GI50 (MCF7 breast): 1.59 µM and 5.3 µM
- TGI (MCF7 breast): 3.1 µM and 11.8 µM
- GI50 (HCC-2998 colon): 1.5 µM
- TGI (HCC-2998 colon): 2.9 µM and 3.84 µM
- GI50 (SNB-19 CNS): 1.67 µM
- TGI (SNB-19 CNS): 3.29 µM and 28.8 µM
- TGI (DMS 273 small cell lung): 11.9 µM
- GI50 (MOLT-4 leukemia): 2.23 µM
- TGI (MOLT-4 leukemia): 5.75 µM and 16.6 µM
- GI50 (786-0 renal): 1.75 µM and 2.79 µM
- TGI (786-0 renal): 3.38 µM and 7.58 µM
- GI50 (OVCAR-8 ovarian): 1.58 µM and 9.14 µM
- TGI (OVCAR-8 ovarian): 3.28 µM and 24.3 µM
- GI50 (OVCAR-5 ovarian): 1.74 µM
- TGI (OVCAR-5 ovarian): 3.51 µM and 22.8 µM

Structure (SMILES): CC(C)(C)c1cc(C(=O)O)c2c(c1)C(=O)OC2(c1ccccc1)c1ccccc1C(=O)O (centres undefined)
- GI50 (MDA-MB-231 breast): > 100 µM
- TGI (MDA-MB-231 breast): > 100 µM
- GI50 (MCF7 breast): > 100 µM
- TGI (MCF7 breast): > 100 µM
- TGI (HCC-2998 colon): > 100 µM
- TGI (SNB-19 CNS): > 100 µM
- TGI (DMS 273 small cell lung): > 100 µM
- TGI (MOLT-4 leukemia): > 100 µM
- TGI (786-0 renal): > 100 µM
- TGI (OVCAR-8 ovarian): > 100 µM
- TGI (OVCAR-5 ovarian): > 100 µM

Structure (SMILES): O=C(c1c(O)cc(O)cc1O)C1Cc2ccccc21 (centres undefined)
- TGI (HCC-2998 colon): > 100 µM
- TGI (SNB-19 CNS): > 100 µM
- TGI (DMS 273 small cell lung): > 100 µM
- TGI (MOLT-4 leukemia): > 100 µM
- TGI (786-0 renal): > 100 µM
- TGI (OVCAR-8 ovarian): > 100 µM
- TGI (OVCAR-5 ovarian): > 100 µM

Structure (SMILES): CC(=O)OCC(CC[CH2][Sn]([Cl])([Cl])[c]1ccccc1)OC(C)=O (centres undefined)
- GI50 (HCC-2998 colon): 28.2 µM
- TGI (HCC-2998 colon): 83.1 µM
- GI50 (SNB-19 CNS): 27.7 µM
- TGI (SNB-19 CNS): 74.6 µM
- GI50 (DMS 273 small cell lung): 20.6 µM
- TGI (DMS 273 small cell lung): 43.3 µM
- GI50 (MOLT-4 leukemia): 22 µM
- TGI (MOLT-4 leukemia): 63.7 µM
- GI50 (786-0 renal): 19.1 µM
- TGI (786-0 renal): 38 µM
- GI50 (OVCAR-8 ovarian): 17.5 µM
- TGI (OVCAR-8 ovarian): 32.9 µM
- GI50 (OVCAR-5 ovarian): 15.7 µM
- TGI (OVCAR-5 ovarian): 42 µM
